In patent publication US10487115B2, “Proteinaceous compounds and uses therefor” (UNIVERSITY OF CANBERRA, priority 2016, dated 2019):
* marks the point of attachment. Myristoyl = CCCCCCCCCCCCCC(=O)*

How the values were obtained:
[1] = system: MCF7 epithelial cells; experiment: Live cell population after treatment, MCF7 cells (FACS); assay type: cell-based, human; settings: same concentration of inhibitor as in MDA-MB-231 cells
Procedure: (§1) 5×10^4 MCF7 cells were seeded with 1 mL of complete DMEM in 12 well plates overnight, then importinib4759 (5004 and 100 μM; synthesized in accordance with Example 1) or importinib4759_O1 (2504 and 50 μM; synthesized in accordance with Example 1) were used to treat cells for 24 hr before stimulation with PMA for 60 hr. Samples were harvested by trypsinization followed by washing with DPBS containing 2% heat inactivated foetal bovine serum (HI-FBS). FACS staining were performed using anti-human CD44-APC, anti-human CD24-PE, Hoechst, and anti-human EpCAM antibody cocktails. Data was collected from BD FACSLSR-II flow cytometer. Treestar FlowJo was used for data analysis.
as §1, with “5×10^4 MDA-MB-231” for “5×10^4 MCF7”, “for 48” for “for 24”, “before samples” for “before stimulation with PMA for 60 hr. Samples”, “2% HI-FBS.” for “2% heat inactivated foetal bovine serum (HI-FBS).”, “staining was” for “staining were”

[2] = molecular target: T1, PKC-θ (Homo sapiens, UniProt Q04759); experiment: Nuclear translocation of PKC-θ in PMA-stimulated MCF7 cells (immunofluorescence, Fn/c); assay type: cell-based
T1 construct: endogenous in cells; host or cells: MCF7
T1 sequence (Q04759 whole entry): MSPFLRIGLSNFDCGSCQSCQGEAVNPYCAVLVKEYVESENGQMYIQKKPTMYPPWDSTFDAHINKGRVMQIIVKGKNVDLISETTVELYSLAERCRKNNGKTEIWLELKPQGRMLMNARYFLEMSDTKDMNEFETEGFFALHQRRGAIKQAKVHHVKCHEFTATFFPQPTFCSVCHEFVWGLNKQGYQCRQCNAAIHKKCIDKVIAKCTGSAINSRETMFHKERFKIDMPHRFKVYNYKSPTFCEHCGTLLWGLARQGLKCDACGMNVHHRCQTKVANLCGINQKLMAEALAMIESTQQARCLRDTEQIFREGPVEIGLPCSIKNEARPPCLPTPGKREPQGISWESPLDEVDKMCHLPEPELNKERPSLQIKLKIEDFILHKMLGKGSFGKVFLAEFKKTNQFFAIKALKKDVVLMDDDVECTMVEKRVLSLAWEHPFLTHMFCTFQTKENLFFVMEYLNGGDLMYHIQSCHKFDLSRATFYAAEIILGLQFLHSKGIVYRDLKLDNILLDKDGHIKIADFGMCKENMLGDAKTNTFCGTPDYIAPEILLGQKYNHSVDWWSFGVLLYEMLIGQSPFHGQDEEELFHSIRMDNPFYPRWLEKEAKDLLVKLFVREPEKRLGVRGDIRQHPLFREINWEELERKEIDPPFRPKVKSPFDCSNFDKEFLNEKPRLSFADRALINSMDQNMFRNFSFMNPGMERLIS
Procedure: (§2) MCF7 cells were pre-seeded overnight on sterile coverslips in 12 well plates with 1 mL of completed Dulbecco's modified eagle medium (DMEM) before incubating with 50 μM of importinib4759 (synthesized in accordance with Example 1) and importinib4759_O1 (synthesized in accordance with Example 1) for 24 hr. Test peptides were not removed when MCF7 cells were stimulated with 0.65 ng/mL of phorbol 12-myristate 13-acetate (PMA) for 60 hr. Diethylpyrocarbonate (DEPC)-water was used for control (test peptides were dissolved in sterile DEPC-water). After wash with Dulbecco's phosphate buffered saline (DPBS) twice, samples on coverslips were fixed with 4% paraformaldehyde for 10 minutes and stained with PKC-θ (Cat. SC-212), PKC-θ-Phosphor-T538, PKC-β2, PKC-α, Importin α, or Importin 8 primary Antibody respectively and conjugated Alexa-488 secondary Antibody. Cell nucleus was stained with anti-fade 2-(4-amidinophenyl)-6-indolecarbamidine dihydrochloride (DAPI). When samples were dried overnight, Nikon fluorescence microscopy was used to take photos. ImageJ software was used for densimetric analysis. Fn/c was calculated using the formula: Fn/c=(nuclear density-background density)/(cytoplasmic density-background density).

[3] = system: p53; experiment: Nuclear expression of p53 in PMA-stimulated MCF7 cells (immunofluorescence, Fn/c); assay type: cell-based, human; settings: 50 μM 24 hr, PMA 60 hr, p=0.0009
Procedure: (§3) MCF7 cells were pre-seeded overnight on sterile coverslips in 12 well plates with 1 mL of completed DMEM before inhibiting with 50 μM of importinib4759_O1 (synthesized in accordance with Example 1) for 24 hr. Importinib4759_O1 was removed when MCF7 cells were stimulated with 0.65 ng/mL of PMA for 60 hr. DEPC-water was used as the control (importinib4759_O1 was dissolved in sterile DEPC-water). After washing with DPBS twice, samples on coverslips were fixed with 4% paraformaldehyde for 10 minutes and stained with p65, Rb, or p53 primary Antibody and conjugated Alexa-488 secondary Antibody. Cell nucleus was stained with anti-fade DAPI. When samples were dried overnight, Nikon fluorescence microscopy was used to take photos. ImageJ software was used for densimetric analysis. Fn/c was calculated using the formula: Fn/c=(nuclear density-background density)/(cytoplasmic density-background density).

[4] = system: NF-κB p65; experiment: Nuclear expression of NF-κB p65 in PMA-stimulated MCF7 cells (immunofluorescence, Fn/c); assay type: cell-based, human; settings: 50 μM 24 hr, PMA 60 hr, p=0.0033
Procedure: as §3

[5] = molecular target: T2, Importin 8 (Homo sapiens, UniProt O15397); experiment: Localization of Importin 8 in PMA-stimulated MCF7 cells (immunofluorescence, Fn/c); assay type: cell-based; settings: 50 μM, p=not significant relative to control
T2 construct: endogenous in cells; host or cells: MCF7
T2 sequence (O15397 whole entry): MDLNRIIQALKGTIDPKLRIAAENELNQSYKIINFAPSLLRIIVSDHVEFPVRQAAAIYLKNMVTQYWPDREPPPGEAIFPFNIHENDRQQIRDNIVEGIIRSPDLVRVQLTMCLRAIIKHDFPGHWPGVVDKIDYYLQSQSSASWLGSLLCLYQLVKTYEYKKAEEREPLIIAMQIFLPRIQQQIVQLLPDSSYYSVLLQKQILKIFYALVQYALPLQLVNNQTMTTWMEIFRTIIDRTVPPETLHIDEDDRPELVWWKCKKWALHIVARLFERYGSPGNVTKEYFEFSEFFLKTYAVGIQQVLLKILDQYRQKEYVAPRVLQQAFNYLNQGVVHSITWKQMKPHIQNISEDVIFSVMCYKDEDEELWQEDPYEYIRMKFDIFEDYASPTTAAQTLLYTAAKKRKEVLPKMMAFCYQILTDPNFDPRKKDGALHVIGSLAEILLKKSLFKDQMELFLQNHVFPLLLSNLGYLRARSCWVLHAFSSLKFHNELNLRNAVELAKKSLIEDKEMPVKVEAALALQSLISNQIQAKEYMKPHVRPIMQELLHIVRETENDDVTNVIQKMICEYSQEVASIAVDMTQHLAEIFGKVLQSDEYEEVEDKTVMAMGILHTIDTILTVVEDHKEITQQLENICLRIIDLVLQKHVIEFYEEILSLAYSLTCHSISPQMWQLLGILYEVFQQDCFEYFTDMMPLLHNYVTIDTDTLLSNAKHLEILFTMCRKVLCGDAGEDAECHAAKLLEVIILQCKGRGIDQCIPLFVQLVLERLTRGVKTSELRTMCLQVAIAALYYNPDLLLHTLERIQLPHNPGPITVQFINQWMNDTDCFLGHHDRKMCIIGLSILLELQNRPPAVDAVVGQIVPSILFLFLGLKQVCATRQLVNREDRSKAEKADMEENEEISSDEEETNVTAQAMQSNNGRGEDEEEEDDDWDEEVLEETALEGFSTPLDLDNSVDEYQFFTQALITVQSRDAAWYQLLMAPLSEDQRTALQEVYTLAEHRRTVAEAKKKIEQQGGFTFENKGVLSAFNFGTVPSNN
Procedure: as §2

[6] = system: Rb; experiment: Expression of tumor suppressor protein Rb in PMA-stimulated MCF7 cells (immunofluorescence, Fn/c); assay type: cell-based, human; settings: 50 μM 24 hr, PMA 60 hr, p=0.0007
Procedure: as §3

[7] = system: MDA-MB-231 xenograft; experiment: Balb/c-nude MDA-MB-231 xenograft breast cancer model: tumor volume and cancer stem cell proportion; assay type: in vivo, balb/c-nude mice
Procedure: A Balb/c-nude MDA-MB-231 xenograft breast cancer model was utilized to determine the effect of the importinib peptides alone and in combination with the chemotherapeutic, docetaxel in comparison to a randomized peptide control.
Five week old balb/c-nude mice (n=5 per test compound) were injected with MDA-MB-231 human breast carcinoma cell suspensions (2×10^6 cells in 25 μL PBS mixed with 25 μL of BD Matrigel Matrix) subcutaneously into the right mammary gland. Test compounds in a saline vehicle [4 mg/kg docetaxel; 8 mg/kg, 40 mg/kg and 60 mg/kg importinib4759 or importinib4759_O1 (synthesized in accordance with Example 1); 4 mg/kg docetaxel with 8 mg/kg importinib4759 or importinib4759_O1; 4 mg/kg docetaxel with 40 mg/kg importinib4759 or importinib4759_O1; 4 mg/kg docetaxel with 60 mg/kg importinib4759 or importinib4759_O1; or randomized peptide control] were injected intraperitoneally. Tumor volume was assessed using calipers daily over a period of five weeks following treatment. Animals were sacrificed after the five week period. Tumor grafts were removed using resection and processed into single cell suspensions. The percentage of cancer stem cells was determined using FACS analysis. FACS staining was performed using anti-human CD44-APC, anti-human CD24-PE, Hoechst, and anti-human EpCAM antibody cocktails. Data was collected from BD FACSLSR-II flow cytometer. Treestar FlowJo was used for data analysis. Significance was determined using a one-way ANOVA or Mann-Whitney T-test.

[8] = system: Importin α; experiment: Localization of Importin α in PMA-stimulated MCF7 cells (immunofluorescence, Fn/c); assay type: cell-based, human; settings: 50 μM, p=not significant relative to control
Procedure: as §2

[9] = molecular target: T3, PKC-β2 (Homo sapiens, UniProt P05771); experiment: Localization of PKC-β2 in PMA-stimulated MCF7 cells (immunofluorescence, Fn/c); assay type: cell-based; settings: 50 μM, p=not significant relative to control
T3 construct: endogenous in cells; host or cells: MCF7
T3 sequence (P05771 1-673 isoform P05771-2): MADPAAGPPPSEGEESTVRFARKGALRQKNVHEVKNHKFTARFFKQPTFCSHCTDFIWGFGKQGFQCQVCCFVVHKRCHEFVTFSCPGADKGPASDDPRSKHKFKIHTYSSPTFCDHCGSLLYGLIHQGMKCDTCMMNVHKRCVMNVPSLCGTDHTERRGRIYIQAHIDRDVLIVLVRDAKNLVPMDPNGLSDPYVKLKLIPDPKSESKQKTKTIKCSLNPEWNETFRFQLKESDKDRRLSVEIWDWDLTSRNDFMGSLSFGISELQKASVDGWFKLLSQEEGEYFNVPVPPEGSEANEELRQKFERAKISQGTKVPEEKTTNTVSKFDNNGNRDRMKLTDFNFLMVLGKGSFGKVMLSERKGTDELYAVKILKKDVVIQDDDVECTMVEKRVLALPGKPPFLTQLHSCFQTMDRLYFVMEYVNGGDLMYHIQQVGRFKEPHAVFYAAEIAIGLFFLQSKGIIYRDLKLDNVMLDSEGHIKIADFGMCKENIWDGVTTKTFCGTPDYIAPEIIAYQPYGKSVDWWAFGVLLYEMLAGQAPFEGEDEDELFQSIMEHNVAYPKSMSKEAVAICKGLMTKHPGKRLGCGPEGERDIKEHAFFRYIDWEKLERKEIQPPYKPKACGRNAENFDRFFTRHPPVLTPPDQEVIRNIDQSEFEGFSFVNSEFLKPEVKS
Procedure: as §2

[10] = system: MCF7 cells; experiment: CD44hiCD24lo cancer stem cell formation in MCF-IM model (FACS); assay type: cell-based, human; settings: importinib4759 5004 and 100 μM, importinib4759_O1 2504 and 50 μM, 24 hr before PMA 60 hr, p=0.0079 relative to control
Procedure: as §1

[11] = system: MDA-MB-231 cells; experiment: Live cell population after treatment, MDA-MB-231 cells (FACS); assay type: cell-based, human; settings: 48 hr treatment, p<0.0001 relative to control
Procedure: as §1, with “5×10^4 MDA-MB-231” for “5×10^4 MCF7”, “for 48” for “for 24”, “before samples” for “before stimulation with PMA for 60 hr. Samples”, “2% HI-FBS.” for “2% heat inactivated foetal bovine serum (HI-FBS).”, “staining was” for “staining were”

[12] = molecular target: T4, PKC-α (Homo sapiens, UniProt P17252); experiment: Localization of PKC-α in PMA-stimulated MCF7 cells (immunofluorescence, Fn/c); assay type: cell-based; settings: 50 μM, p=not significant relative to control
T4 construct: endogenous in cells; host or cells: MCF7
Procedure: as §2

For “RRKRIDWPPRRKPK-OH (Myristoyl-RRKRIDWPPRRKPK-OH; SMILES CCCCCCCCCCCCCC(=O)N[C@@H](CCCNC(=N)N)C(=O)N[C@@H](CCCNC(=N)N)C(=O)N[C@@H](CCCCN)C(=O)N[C@@H](CCCNC(=N)N)C(=O)N[C@H](C(=O)N[C@@H](CC(=O)O)C(=O)N[C@@H](Cc1c[nH]c2ccccc12)C(=O)N1CCC[C@H]1C(=O)N1CCC[C@H]1C(=O)N[C@@H](CCCNC(=N)N)C(=O)N[C@@H](CCCNC(=N)N)C(=O)N[C@@H](CCCCN)C(=O)N1CCC[C@H]1C(=O)N[C@@H](CCCCN)C(=O)O)[C@@H](C)CC) [Importinib4759_O1, tested N-myristoylated]”, the “effect on live cell population of MCF7 epithelial cells” value [1] was “minimal effect”, the “blocking of nuclear PKC-θ (nuclear translocation)” value ([2]; 50 μM peptide 24 hr, then PMA 0.65 ng/mL 60 hr, N-myristoylated peptides, p<0.0001 relative to control) was “capable of blocking nuclear PKC-θ” and the “capacity to prevent PKC-θ nuclear translocation compared to importinib4759” value ([2]; 50 μM, PMA stimulated) was “significantly higher capacity to prevent PKC-θ nuclear translocation compared to importinib4759”. The “nuclear expression of p53” value [3] was “significantly inhibited nuclear expression”, the “nuclear expression of NF-κB p65” value [4] was “significantly inhibited nuclear expression” and the “effect on distribution of Importin 8” value [5] was “had no effect”. The “expression of tumor suppressor protein Rb” value [6] was “enhanced expression”, the “cancer stem cell (CD44highCD24low) population in tumor grafts” value ([7]; FACS of resected tumor grafts after five weeks) was “significantly abrogated the cancer stem cell population” and the “tumor volume in comparison to the control or docetaxel treatment alone” value ([7]; intraperitoneal, peptide 8, 40 and 60 mg/kg, docetaxel 4 mg/kg, five weeks) was “abrogated tumor volume”. The “tumor volume over time” value ([7]; intraperitoneal, peptide 8, 40 and 60 mg/kg, docetaxel 4 mg/kg, five weeks, n=5) was “reduced tumor volume over time”, the “effect on distribution of Importin α” value [8] was “had no effect” and the “effect on distribution of PKC-β2” value [9] was “had no effect”. The “cancer stem cell (CD44hiCD24lo) formation” value [10] was “inhibited”, the “effect on live cell population of MDA-MB-231 cells” value [11] was “cleared virtually all MDA-MB-231 cells” and the “effect on distribution of PKC-α” value [12] was “had no effect”.
